The values below come from patent US9186402B2 (Colorado State University Research Foundation, priority 2008, dated 2015).

Where two headings read alike, the source gives them in different places. A value given as a limit tells only on which side of the number the result lay.

The conditions of data set [1]: amide bond, HATU, CH3CN.
Data set [2] addresses T1, HDAC2 (Homo sapiens, UniProt Q92769). Put plainly: HDAC2 inhibition, trypsin-coupled kinetic fluorescence homogeneous assay. Type of data set: biochemical.
Protocol: To measure the inhibitory effect on deacetylase function in vitro, a continuous kinetic biochemical assay miniaturized to 384-well plate format was optimized.
Fluorescence measurements were obtained in real-time on a Varioskan microtiter plate reader (Thermo). Triplicate experimental data from incubations with inhibitor were normalized to solvent-only wells and analyzed by logistic regression (Spotfire DecisionSite).
A biochemical study of HDAC2 inhibition was carried out using the trypsin-coupled, kinetic fluorescence homogeneous assay described above.
The target of data set [3] is T2, HDAC6 (Homo sapiens, UniProt Q9UBN7).
T2 sequence (Q9UBN7 1-1215): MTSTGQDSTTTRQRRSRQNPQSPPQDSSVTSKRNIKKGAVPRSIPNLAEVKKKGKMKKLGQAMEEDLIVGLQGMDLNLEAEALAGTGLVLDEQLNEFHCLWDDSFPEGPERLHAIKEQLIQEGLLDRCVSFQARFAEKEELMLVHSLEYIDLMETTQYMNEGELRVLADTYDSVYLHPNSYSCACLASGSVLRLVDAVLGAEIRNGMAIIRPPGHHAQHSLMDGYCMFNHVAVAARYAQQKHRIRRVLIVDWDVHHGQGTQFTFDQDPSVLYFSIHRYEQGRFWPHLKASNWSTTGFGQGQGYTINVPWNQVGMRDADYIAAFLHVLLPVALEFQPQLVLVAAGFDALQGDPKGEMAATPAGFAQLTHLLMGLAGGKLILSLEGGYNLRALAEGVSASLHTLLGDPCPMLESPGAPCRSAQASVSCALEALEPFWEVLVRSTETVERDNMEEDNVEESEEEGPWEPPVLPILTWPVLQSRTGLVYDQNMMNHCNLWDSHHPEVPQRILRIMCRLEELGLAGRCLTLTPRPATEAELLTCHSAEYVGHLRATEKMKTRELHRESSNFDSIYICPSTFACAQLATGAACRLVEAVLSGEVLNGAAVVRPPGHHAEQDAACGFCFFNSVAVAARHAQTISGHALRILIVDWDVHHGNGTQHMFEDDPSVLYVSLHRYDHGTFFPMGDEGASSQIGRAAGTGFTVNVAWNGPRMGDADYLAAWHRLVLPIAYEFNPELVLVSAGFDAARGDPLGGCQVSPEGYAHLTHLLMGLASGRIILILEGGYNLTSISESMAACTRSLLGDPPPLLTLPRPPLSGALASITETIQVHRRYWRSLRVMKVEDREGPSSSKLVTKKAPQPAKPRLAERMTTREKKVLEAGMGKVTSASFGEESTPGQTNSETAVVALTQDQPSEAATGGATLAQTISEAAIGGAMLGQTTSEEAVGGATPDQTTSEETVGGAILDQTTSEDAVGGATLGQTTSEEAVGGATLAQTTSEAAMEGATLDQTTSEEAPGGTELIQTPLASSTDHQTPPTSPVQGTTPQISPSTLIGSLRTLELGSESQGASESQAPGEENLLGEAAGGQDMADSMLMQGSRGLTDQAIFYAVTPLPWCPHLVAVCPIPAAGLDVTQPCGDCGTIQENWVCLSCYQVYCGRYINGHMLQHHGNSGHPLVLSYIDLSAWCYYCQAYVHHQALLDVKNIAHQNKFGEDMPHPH
The experiment in a line: HDAC biochemical assay (IC50), 384-well homogeneous. As to conditions: read-out: Biochemical inhibition of human HDACs (IC50) HDAC6.
Protocol: (§1) The inhibitory effect of compounds on deacetylase isoenzyme function was determined in vitro using an optimized homogenous assay performed in 384-well plate format. […] Data are analyzed on a plate-by-plate basis for the linear range of fluorescence over time. Data from the plate capture corresponding to the mid-linear range is imported into analytical software and annotated with well identity and compound concentration (Spotfire DecisionSite). Replicate experimental data from incubations with inhibitor are normalized to control, solvent-only wells and IC-50 is deteremined by logistic regression.
(§2) A liquid handling device then transferred a tripeptide substrate terminating in acetyl-lysine and amide conjugated to 4-methyl-7-aminocoumarin (AMC), recombinant human histone deacetylase (BPS Bioscience, San Diego, Calif.), and recombinant human trypsin (Sigma-Aldrich, St. Louis, Mo.). Following deacetylase hydrolysis of acetyl-lysine, trypsin cleavage liberated the AMC fluorophore. Kinetic (fluorescence per unit time) and end-point (total fluorescence) data were captured by a multilabel plate reader. Replicate data were analyzed by curve-fit using logistic regression (Snotfire Decision—Site).

Data set [4] has as its system HDACs 1, 2 and 3. Put plainly: HDAC biochemical assay, summary statements on Class I HDACs. Details: species or system human.
For data set [5], the target named is HDAC3/NCor2 (Homo sapiens, UniProt O15379). Put plainly: HDAC biochemical assay (IC50), 384-well homogeneous. As to conditions: read-out: Biochemical inhibition of human HDACs (IC50) HDAC3.
Protocol: as §1, §2
Data set [6] deals with HDAC1 (Homo sapiens, UniProt Q13547). The description is as above. To be noted: reducing conditions (TCEP 200 μM); read-out: Biochemical inhibition of human HDACs (IC50) HDAC1.
Protocol: as §1, §2
Data set [7] addresses T1, HDAC2. Described as above. As to conditions: reducing conditions (TCEP 200 μM); read-out: Biochemical inhibition of human HDACs (IC50) HDAC2.
Protocol: as §1, §2
Data set [8] relates to human malignant melanoma cell lines. The experiment in a line: cell viability by ATP content (Cell TiterGlo), melanoma panel. Type of data set: cell-based. As to conditions: range over panel of human malignant melanoma cell lines, read-out: IC50 melanoma cell proliferation / viability.
[9] abbreviates: reducing conditions (TCEP 200 μM).
The mark [10] stands for this setting: HDAC2, logistic fit of scatter plots, Conc (uM), read-out: X50 (curve fit, activity versus concentration).

HDAC1, sequence (Q13547 whole entry): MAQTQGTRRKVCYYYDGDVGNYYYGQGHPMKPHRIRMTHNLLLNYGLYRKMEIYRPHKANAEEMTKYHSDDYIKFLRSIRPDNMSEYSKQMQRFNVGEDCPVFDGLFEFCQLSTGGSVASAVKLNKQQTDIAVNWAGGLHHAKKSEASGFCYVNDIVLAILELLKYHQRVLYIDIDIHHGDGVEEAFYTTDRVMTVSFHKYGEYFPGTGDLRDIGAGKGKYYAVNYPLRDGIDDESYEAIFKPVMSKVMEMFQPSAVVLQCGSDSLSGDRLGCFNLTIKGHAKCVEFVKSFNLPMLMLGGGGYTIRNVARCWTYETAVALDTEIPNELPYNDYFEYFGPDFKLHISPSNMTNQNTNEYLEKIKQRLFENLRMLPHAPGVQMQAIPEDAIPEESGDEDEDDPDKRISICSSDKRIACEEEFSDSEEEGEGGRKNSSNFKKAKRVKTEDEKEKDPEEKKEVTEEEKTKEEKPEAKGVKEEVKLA
T1 sequence (Q92769 whole entry): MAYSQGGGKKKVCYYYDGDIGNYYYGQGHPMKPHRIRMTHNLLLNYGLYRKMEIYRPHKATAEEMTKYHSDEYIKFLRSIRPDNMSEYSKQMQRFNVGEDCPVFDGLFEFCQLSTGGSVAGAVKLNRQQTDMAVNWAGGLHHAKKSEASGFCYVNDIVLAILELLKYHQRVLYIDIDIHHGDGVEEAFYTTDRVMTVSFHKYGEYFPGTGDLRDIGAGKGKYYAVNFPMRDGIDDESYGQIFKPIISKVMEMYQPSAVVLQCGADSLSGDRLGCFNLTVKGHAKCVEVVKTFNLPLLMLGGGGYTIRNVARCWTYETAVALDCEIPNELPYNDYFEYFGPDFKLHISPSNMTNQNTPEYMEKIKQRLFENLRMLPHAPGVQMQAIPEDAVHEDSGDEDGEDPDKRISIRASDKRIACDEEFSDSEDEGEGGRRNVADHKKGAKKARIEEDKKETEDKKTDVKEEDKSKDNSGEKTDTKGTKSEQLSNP
HDAC3/NCor2, sequence (O15379 whole entry): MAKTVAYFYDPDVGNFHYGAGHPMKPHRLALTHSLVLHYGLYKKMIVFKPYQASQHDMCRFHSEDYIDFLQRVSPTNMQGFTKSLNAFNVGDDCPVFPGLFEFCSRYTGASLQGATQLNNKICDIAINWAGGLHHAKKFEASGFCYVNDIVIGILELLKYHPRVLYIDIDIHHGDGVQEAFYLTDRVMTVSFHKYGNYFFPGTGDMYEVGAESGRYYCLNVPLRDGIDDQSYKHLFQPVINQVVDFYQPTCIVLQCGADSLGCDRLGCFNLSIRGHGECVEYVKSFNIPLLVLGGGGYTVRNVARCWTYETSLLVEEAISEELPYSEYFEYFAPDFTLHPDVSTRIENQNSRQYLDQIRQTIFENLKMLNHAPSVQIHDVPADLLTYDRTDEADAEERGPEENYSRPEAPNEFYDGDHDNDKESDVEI
HDAC3/NCor2, sequence (Q9Y618 395-489 partner limits assumed): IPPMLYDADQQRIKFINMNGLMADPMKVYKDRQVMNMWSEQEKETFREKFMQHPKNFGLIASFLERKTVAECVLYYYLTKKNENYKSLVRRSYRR

For `CC(C)[C@H]1NC(=O)[C@@]2(C)CSC(=N2)c2csc(n2)CNC(=O)C[C@H](/C=C/CCSC(c2ccccc2)(c2ccccc2)c2ccccc2)OC1=O`, the ring closure, yield of all isomers in data set [1] (from CC(C)[C@@H](NC(=O)[C@@]1(C)CSC(c2csc(CNC(=O)OC(C)(C)C)n2)=N1)C(=O)O[C@@H](/C=C/CCSC(c1ccccc1)(c1ccccc1)c1ccccc1)CC(=O)OCC[Si](C)(C)C, 2 steps) was determined as 87%.

In the case of `C[C@@]12CSC(=N1)c1csc(n1)CNC(=O)C[C@@H](/C=C/CCSC(c1ccccc1)(c1ccccc1)c1ccccc1)OC(=O)[C@@H]1CCCN1C2=O`, the ring closure, yield of all isomers in data set [1] (from CC(C)(C)OC(=O)NCc1nc(C2=N[C@](C)(C(=O)N3CCC[C@H]3C(=O)O[C@H](/C=C/CCSC(c3ccccc3)(c3ccccc3)c3ccccc3)CC(=O)OCC[Si](C)(C)C)CS2)cs1, 0.83 mM, […], 2 steps) worked out at 43%.

For `CCCCCCCC(=O)SCC/C=C/[C@@H]1CC(=O)NCc2nc(cs2)C2=N[C@@](C)(CS2)C(=O)N[C@@H](C(C)C)C(=O)N1` [ab6_1236 acyl amide], the “X50 (curve fit, activity versus concentration)” value in data set [2] (HDAC2, logistic fit of scatter plots, Conc (uM)) is given as “X50 = 1.677E12 uM”.

`CC(C)C1NC(=O)C2(C)CSC(=N2)c2cccc(n2)CNC(=O)CC(C=CCCS)OC1=O` (stereo not shown) [Thiazole-pyridine substitution (29b)]: the IC50 worked out at 29 nM in data set [3] (setting [9]) and 1.1 nM in data set [5] (setting [9]). In addition, the “activity against Class I HDACs” value in data set [4] is recorded as “sub-nanomolar”.

`CCCCCCCC(=O)SCC/C=C/[C@@H]1CC(=O)NCc2nc(cs2)C2=N[C@@](C)(CS2)C(=O)N2CCC[C@H]2C(=O)O1` [ab6_161b Proline acyl]: the IC50 in data set [2] (setting [10]) amounted to 708 µM.

Take `CC(C)[C@@H]1NC(=O)[C@]2(C)CSC(=N2)c2csc(n2)CNC(=O)C[C@@H](/C=C/CCSC(c2ccccc2)(c2ccccc2)c2ccccc2)NC1=O`: in data set [1] (from COC(=O)C[C@@H](/C=C/CCSC(c1ccccc1)(c1ccccc1)c1ccccc1)NC(=O)[C@@H](NC(=O)[C@]1(C)CSC(c2csc(CNC(=O)OC(C)(C)C)n2)=N1)C(C)C, 0.94 mM, […], 3 steps), the ring closure, yield of all isomers worked out at 50%.

`CC(C)[C@@H]1NC(=O)[C@]2(C)CSC(=N2)c2csc(n2)CNC(=O)C[C@@H](C/C=C\CCC(=O)O)OC1=O` [Largazole-Azumamide hybrid (9b)]: the IC50 in data set [6], in data set [7], in data set [3] (setting [9]) and in data set [5] (setting [9]) was more than 30000 nM in each case.

Consider `CC(C)C1NC(=O)C2CSC(=N2)c2csc(n2)CNC(=O)CC(C=CCCS)OC1=O` (stereo not shown) [Cysteine substitution 22b], for which the IC50 was determined as 1.9 nM in data set [6], 4.8 nM in data set [7], 130 nM in data set [3] (setting [9]) and 3.8 nM in data set [5] (setting [9]).

`C[C@@]12CSC(=N1)c1csc(n1)CNC(=O)C[C@@H](/C=C/CCS)OC(=O)[C@@H]1CCCN1C2=O` [Proline substitution (4)]: the IC50 in data set [6] turned out to be 110 nM; in data set [7], 800 nM; in data set [3] it was 13000 nM; in data set [5], 580 nM. Moreover, in data set [2], the “X50 (curve fit, activity versus concentration)” value is listed as “X50 = 0.7733 uM”.

Regarding `CCCCCCCC(=O)SCC/C=C/[C@@H]1CC(=O)NCc2nc(cs2)C2=N[C@@](C)(CS2)C(=O)N[C@@H](C(C)C)C(=O)O1` [largazole (1), largazole, reference compound], the IC50 in data set [8] was 45 to 315 nM; in data set [2], 7.14 µM.

For `CC(C)[C@@H]1NC(=O)c2csc(n2)-c2csc(n2)CNC(=O)C[C@@H](/C=C/CCS)OC1=O` [Thiazole-thiazole (23b)], the IC50 in data set [7] turned out to be 120 nM.

Consider `CCCCCCCC(=O)SCCCCC=CC1CC(=O)NCc2nc(cs2)C2=NC(C)(CS2)C(=O)NC(C(C)C)C(=O)O1` (stereo not shown) [ab6_162b], for which the IC50 in data set [2] (setting [10]) is 2.69 µM.
